Laboratory results as given in patent US8101760B2, “Glucocorticoid receptor modulator and methods of use” (Eli Lilly and Company, priority 2007, dated 2012).

Legend:
[1] = Bioavailability and plasma exposure after oral administration to test animals; type: in vivo
[2] = molecular target: T1, human MR (mineralocorticoid receptor) (Homo sapiens, UniProt P08235); assay: Nuclear hormone receptor binding assay, MR
T1 construct: expressed in transfected cells; host or cells: HEK293 (lysate, '293-MR lysate')
T1 sequence (P08235 1-984): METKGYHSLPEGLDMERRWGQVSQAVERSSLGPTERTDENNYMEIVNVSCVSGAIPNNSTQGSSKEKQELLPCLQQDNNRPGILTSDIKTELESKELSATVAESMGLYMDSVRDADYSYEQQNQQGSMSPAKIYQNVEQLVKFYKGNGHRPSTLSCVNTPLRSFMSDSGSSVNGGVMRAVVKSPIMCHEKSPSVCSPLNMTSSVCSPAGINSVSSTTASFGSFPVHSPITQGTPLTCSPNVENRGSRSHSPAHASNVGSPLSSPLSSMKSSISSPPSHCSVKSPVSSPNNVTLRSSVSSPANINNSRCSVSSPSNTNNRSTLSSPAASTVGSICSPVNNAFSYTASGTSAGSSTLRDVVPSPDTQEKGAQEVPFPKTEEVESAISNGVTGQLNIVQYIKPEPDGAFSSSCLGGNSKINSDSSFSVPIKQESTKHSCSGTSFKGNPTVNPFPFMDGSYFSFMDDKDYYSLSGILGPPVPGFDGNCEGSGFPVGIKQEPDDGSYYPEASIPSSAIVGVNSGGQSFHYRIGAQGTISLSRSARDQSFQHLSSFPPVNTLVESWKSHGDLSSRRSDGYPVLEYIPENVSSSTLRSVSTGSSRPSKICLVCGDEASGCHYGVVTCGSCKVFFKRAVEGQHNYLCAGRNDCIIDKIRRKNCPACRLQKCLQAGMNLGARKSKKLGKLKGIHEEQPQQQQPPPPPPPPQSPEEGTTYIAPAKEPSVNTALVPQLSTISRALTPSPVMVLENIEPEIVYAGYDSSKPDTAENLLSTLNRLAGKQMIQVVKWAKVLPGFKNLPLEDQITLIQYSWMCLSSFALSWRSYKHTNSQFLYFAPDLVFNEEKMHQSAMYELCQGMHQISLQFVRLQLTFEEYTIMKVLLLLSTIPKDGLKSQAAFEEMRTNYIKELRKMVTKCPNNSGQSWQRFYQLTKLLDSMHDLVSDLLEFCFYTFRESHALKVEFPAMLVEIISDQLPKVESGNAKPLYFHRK
Experimental: Cell lysates from human embryonic kidney HEK293 cells overexpressing human GR (glucocorticoid receptor), AR (androgen receptor), MR (mineralocorticoid receptor), or PR (progesterone receptor) are used for receptor-ligand competition binding assays to determine Ki values.
Briefly, steroid receptor competition binding assays are run in a buffer containing 20 mM Hepes buffer (pH=7.6), 0.2 mM EDTA, 75 mM NaCl, 1.5 mM MgCl2, 20% glycerol, 20 mM sodium molybdate, 0.2 mM DTT (dithiothreitol), 20 μg/mL aprotinin and 20 μg/mL leupeptin. Typically, steroid receptor binding assays include radio-labeled ligands, such as 0.3 nM [^3H]-dexamethasone for GR binding, 0.36 nM [^3H]-methyltrienolone for AR binding, 0.25 nM [^3H]-aldosterone for MR binding, and 0.29 nM [^3H]-methyltrienolone for PR binding, and either 20 μg 293-GR lysate, 22 μg 293-AR lysate, 20 μg 293-MR lysate or 40 μg 293-PR lysate per well. Assays are typically run in 96-well format. Competing test compounds are added at various concentrations ranging from about 0.01 nM to 10 μM. Non-specific binding is determined in the presence of 500 nM dexamethasone for GR binding, 500 nM aldosterone for MR binding, or 500 nM methyltrienolone for AR and PR binding. […] After an incubation of 2 hours, plates are read in a Wallac Microbeta counter. […]

bioavailability [1]: good | plasma exposure [1]: good | Ki ([2]; HEK293 cell lysate expressing human MR, [3H]-aldosterone, mean of 5 determinations): 117 nM | greater affinity for GR relative to MR ([2]; binding selectivity GR vs MR): ≥ 30 fold
SMILES: CC/C(=C1\c2ccc(Cl)cc2OCc2ncccc21)c1cccc(NS(C)(=O)=O)c1 [Compound (I), (E)-N-{3-[1-(8-Chloro-11H-10-oxa-1-aza-dibenzo[a,d]cyclohepten-5-ylidene)-propyl]-phenyl}-methanesulfonamide]
